# Experimental data as given in paper PMC12990037, “Discovery of Two Structurally Distinct Classes of Inhibitors Targeting the Nuclease MUS81 and Enhancing Efficacy of Chemotherapy in Cancer Cells” (Journal of Medicinal Chemistry, 2026).
# Assays:
# MUS81–EME1 = target: T1, MUS81–EME1 (Homo sapiens, UniProt Q96NY9); assay: Gel-based in vitro nuclease assay: cleavage of 3′flap DNA by purified MUS81–EME1; type: biochemical; conditions: for activity in the in vitro assay: negative control compounds
# T1 construct: The MUS81–EME1 full-length expression plasmid was obtained from Stephen C; West; made in house; host or cells: Escherichia coli
# T1 sequence (Q96NY9 1-551): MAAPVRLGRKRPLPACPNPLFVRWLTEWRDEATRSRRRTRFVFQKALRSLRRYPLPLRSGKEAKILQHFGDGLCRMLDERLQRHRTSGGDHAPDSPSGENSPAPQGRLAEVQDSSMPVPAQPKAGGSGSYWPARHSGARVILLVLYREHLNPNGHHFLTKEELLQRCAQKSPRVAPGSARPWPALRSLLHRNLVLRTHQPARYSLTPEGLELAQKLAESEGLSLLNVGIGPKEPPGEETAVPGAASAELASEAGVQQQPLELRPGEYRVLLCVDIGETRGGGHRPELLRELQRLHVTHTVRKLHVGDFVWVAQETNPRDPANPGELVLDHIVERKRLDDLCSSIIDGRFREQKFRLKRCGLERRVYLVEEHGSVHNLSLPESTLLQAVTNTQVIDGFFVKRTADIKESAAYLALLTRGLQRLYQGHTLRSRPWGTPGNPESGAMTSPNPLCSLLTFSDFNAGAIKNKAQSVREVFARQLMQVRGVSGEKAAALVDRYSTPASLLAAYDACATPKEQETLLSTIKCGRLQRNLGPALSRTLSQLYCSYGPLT
# T1 sequence (Q96AY2 1-570 partner): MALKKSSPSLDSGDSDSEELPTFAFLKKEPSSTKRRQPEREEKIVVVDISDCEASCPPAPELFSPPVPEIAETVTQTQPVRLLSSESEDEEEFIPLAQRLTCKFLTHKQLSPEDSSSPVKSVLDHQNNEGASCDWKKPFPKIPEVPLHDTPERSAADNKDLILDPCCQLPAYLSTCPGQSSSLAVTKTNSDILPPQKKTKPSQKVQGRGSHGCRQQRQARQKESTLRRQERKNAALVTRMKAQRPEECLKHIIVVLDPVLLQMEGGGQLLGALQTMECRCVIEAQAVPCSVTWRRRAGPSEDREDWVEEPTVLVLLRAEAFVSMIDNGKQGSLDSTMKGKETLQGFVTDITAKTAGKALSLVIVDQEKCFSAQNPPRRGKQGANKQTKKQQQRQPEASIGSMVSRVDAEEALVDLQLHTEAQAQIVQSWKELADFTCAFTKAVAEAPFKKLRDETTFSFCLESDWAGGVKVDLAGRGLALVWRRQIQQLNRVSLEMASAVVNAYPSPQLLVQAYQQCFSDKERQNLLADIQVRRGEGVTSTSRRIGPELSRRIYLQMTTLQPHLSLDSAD
# Procedure: To identify the small-molecule inhibitors of MUS81, we used two complementary screening approaches. The first involved a structure-based virtual screening, where over 140,000 small molecules were docked into the active site of MUS81 using AutoDock Vina software. […] The cleavage by purified MUS81-EME1 was monitored by gel electrophoresis, and the compound activity was quantified by measuring the reduction in cleavage product intensity.
# Nuclease assays were performed in reaction buffer containing 50 mM Tris pH 7.5, 10 mM MgCl2, 1 mM DTT, 85 mM KCl, and 20% glycerol. Purified MUS81–EME1 (1 nM) was preincubated in 9 μL reaction with indicated concentrations of inhibitors for 15 min at room temperature, followed by the addition of 3 nM of a 3′flap DNA substrate (listed in Supplementary Table 9) and a further incubation for 15 min at 37 °C. The final concentration of DMSO in the reactions was 2%. The reactions were stopped by the addition of 0.1% SDS and 500 μg/mL of proteinase K, followed by incubation for 5 min at 37 °C. […] The fluorescent DNA was visualized using a FLA-9000 (Fujifilm). Bands corresponding to cleaved substrates were selected for quantification using the MultiGauge 3.2 software. Final data represent integrated density of these bands with background subtraction. Fitting of the data with sigmoid curves was performed in OriginPro (OriginLab).
# [1] = Solubility in aqueous DMSO; type: physicochemical
# [2] = target: T2, MUS81–EME1 binding to 3′ flap DNA substrate (Homo sapiens, UniProt Q96NY9); assay: Electrophoretic mobility shift assay (EMSA); conditions: MUS81–EME1 160 nM, no MgCl2
# T2 construct: The MUS81–EME1 full-length expression plasmid was obtained from Stephen C; West; made in house; host or cells: Escherichia coli
# T2 sequence (Q96NY9 1-551): T1 sequence (Q96NY9 1-551)
# T2 sequence (Q96AY2 1-570 partner): T1 sequence (Q96AY2 1-570 partner)
# U2OS cells [3] = assay: Annexin V apoptotic assay; type: cell-based; conditions: CPT 100 μM for the last 2 h
# Procedure: (§1) Given these promising findings, we further investigated the specificity of MU262 and MU876 and potential short-term cytotoxicity. To mirror the treatment duration used in BIR and HR assays, U2OS cells were exposed to the inhibitors or siRNA for 3 days.
# U2OS WT cells (300,000) were seeded in a 6-well plate, a subset of them was treated with either control siRNA or siRNA targeting MUS81. After adhesion, cells were treated with the respective inhibitors for 72 h during which CPT (100 μM, Sigma-Aldrich) was added for the last 2 h. Cells were harvested, washed in ice-cold PBS, and collected by centrifugation at 500g for 5 min. Cells were simultaneously stained with FITC-labeled annexin V antibody (556419, Becton Dickinson) and PI (5 μL) at room temperature for 15 min, protected from light. Stained cells were analyzed using a BD FACSVerse flow cytometer (Becton Dickinson) and FlowJo software (BD Life Sciences). At least 20,000 cells were used for each measurement, and experiments were performed in duplicates.
# U2OS cells [4] = assay: EdU/PI cell cycle assay; type: cell-based; conditions: CPT 100 μM for the last 16 h
# Procedure: as §1
# U2OS WT cells (300,000) were seeded in a 6-well plate; a subset of them was treated with either control siRNA or siRNA targeting MUS81. After adhesion, cells were treated with the respective inhibitors for 72 h during which CPT ([…], Sigma-Aldrich) was added for the last 16 h and 10 μM EdU (Sigma-Aldrich) was added for the last 1 h. Cells were then harvested and stained by using the Click-iT EdU Alexa Fluor 647 Flow Cytometry Assay Kit (Thermo Fisher Scientific). Finally, cells were resuspended in 1xPBS containing 5 μg/mL of propidium iodide (PI) and analyzed using a BD FACSVerse flow cytometer (Becton Dickinson) and FlowJo software (BD Life Sciences). At least 20,000 cells were used for each measurement, and experiments were performed in duplicates.
"IC50 (MUS81–EME1; Table 2, in vitro)","IC50 (MUS81–EME1; Table 1, in vitro)",Structure (SMILES),other results
> 10 µM,,Cn1nc(-c2ccccc2)cc1NC(=O)c1cc(-c2ccccc2)on1 [Compound 46],
> 10 µM,,COCc1cc(=O)[nH]c(-n2nc(-c3ccccc3)cc2NC(=O)c2cc(-c3ccccc3)on2)n1 [Compound 51],
> 10 µM,,COc1cc(C)nc(-n2nc(-c3ccccc3)cc2NC(=O)c2cc(-c3ccccc3)on2)n1 [Compound 49],
,> 10 µM,CCc1nn2c(O)c(-c3nc4ccccc4n3CCN3CCOCC3)nnc2c1-c1ccc(F)cc1 [Compound 24],
> 10 µM,,O=C(Nc1cc(-c2ccccc2)nn1-c1ccccc1)c1cc(-c2ccccc2)on1 [Compound 47],
,> 25 µM,CCc1nn2c(N)c(-c3nc4ccccc4[nH]3)nnc2c1-c1ccc(OC)cc1 [Compound 7],
> 10 µM,,Cc1cc(=O)[nH]c(-n2nc(-c3ccccc3)cc2NC(=O)c2cc(C3CCCCC3)on2)n1 [Compound 37],
> 10 µM,,Cc1cc(=O)[nH]c(-n2nc(-c3ccccc3)cc2NC(=O)c2cc(-c3ccccc3Br)on2)n1 [Compound 38],
> 10 µM,,O=C(Nc1cc(-c2ccccc2)nn1-c1ncccn1)c1cc(-c2ccccc2)on1 [Compound 48],
,1.8 µM,Nc1c(-c2nc3ccccc3[nH]2)nnc2cc(-c3cccc4ccccc34)nn12 [Compound 12],solubility in aqueous DMSO [1]: only sparingly soluble in aqueous DMSO
> 10 µM,,Cc1cc(=O)[nH]c(-n2nc(-c3ccccc3)cc2NC(=O)c2csc(-c3ccccc3)n2)n1 [Compound 42],
,8 µM,CCc1nn2c(N)c(-c3nc4ccccc4n3Cc3ccccc3)nnc2c1-c1ccc(F)cc1 [Compound 22],
,> 40 µM,CCc1nn2c(O)c(-c3nccn3C)nnc2c1-c1ccc(F)cc1 [Compound 25],activity in the in vitro assay (MUS81–EME1): no activity
,,CCc1nn2c(N)c(-c3ncc[nH]3)nnc2c1-c1ccc(F)cc1 [Compound 27],solubility in aqueous DMSO [1]: less soluble in aqueous DMSO
> 10 µM,,Cc1cc(=O)[nH]c(-n2nc(C3CCCCC3)cc2NC(=O)c2cc(-c3ccccc3)on2)n1 [Compound 34],
,> 5 µM,CCc1cc2nnc(-c3nc4ccccc4[nH]3)c(N)n2n1 [Compound 5],
,> 10 µM,CCc1nn2cc(-c3nc4ccccc4[nH]3)nnc2c1-c1ccc(F)cc1 [Compound 16],
,,Nc1c(-c2nc3ccccc3[nH]2)nnc2cc(-c3ccccc3Oc3ccccc3)nn12 [Compound 13],solubility in aqueous DMSO [1]: only sparingly soluble in aqueous DMSO
> 10 µM,,Cc1cc(=O)[nH]c(-n2nc(-c3ccccc3)c(C)c2NC(=O)c2cc(-c3ccccc3)on2)n1 [Compound 35],
,,Nc1c(-c2nc3ccccc3[nH]2)nnc2cc(-c3ccccc3)nn12 [Compound 15],solubility in aqueous DMSO [1]: only sparingly soluble in aqueous DMSO
,> 50 µM,Nc1c(-c2nc3ccccc3[nH]2)nnc2c(-c3ccc(F)cc3)cnn12 [Compound 4],
> 10 µM,,COc1ccc(-c2cc(C(=O)Nc3cc(-c4ccccc4)nn3-c3nc(C)cc(=O)[nH]3)no2)cc1 [Compound 40],
,> 40 µM,CCc1nn2c(O)c(-c3ncccn3)nnc2c1-c1ccc(F)cc1 [Compound 20],
,,Nc1c(-c2nc3ccccc3[nH]2)nnc2cc(-c3ccc4ccccc4c3)nn12 [Compound 14],solubility in aqueous DMSO [1]: only sparingly soluble in aqueous DMSO
,> 50 µM,CCc1nn2c(N)c(C(N)=O)nnc2c1-c1ccc(F)cc1 [Compound 21],
,> 10 µM,CCc1nn2c(O)c(-c3nc4ccccc4n3CCN(C)C)nnc2c1-c1ccc(F)cc1 [Compound 23],
,,"CC[C@@]1(O)C(=O)OCc2c1cc1n(c2=O)Cc2cc3ccccc3nc2-1 [CPT, camptothecin, reference compound]",apoptosis (Annexin V staining) (U2OS cells [3]): robust apoptosis; cell cycle profile (U2OS cells [4]): reduced the proportion of S phase cells
,> 50 µM,Nc1c(-c2nc3ccccc3[nH]2)nnc2ccnn12 [Compound 3],

Structure (SMILES),"IC50 (MUS81–EME1; Table 2, in vitro)","IC50 (MUS81–EME1; Table 1, in vitro)",other results
Cc1cc(=O)[nH]c(-n2nc(-c3ccccc3)cc2N(C)C(=O)c2cc(-c3ccccc3)on2)n1 [Compound 45],> 10 µM,,activity in the in vitro assay (MUS81–EME1): no activity; effect on MUS81–EME1 binding to 3′ flap DNA (EMSA) [2]: no significant effect
CCc1nn2c(C)c(-c3nc4ccccc4[nH]3)nnc2c1-c1ccc(F)cc1 [Compound 17],,> 10 µM,activity in the in vitro assay (MUS81–EME1): no activity; effect on MUS81–EME1 binding to 3′ flap DNA (EMSA) [2]: neither MU262 nor its inactive analogue MU1066 disrupted the MUS81–DNA interaction
